# Measurements taken from US9279010B2, “Treatment of inflammatory bowel diseases with mammal beta defensins” (Defensin Therapeutics ApS, priority 2008, dated 2016).
# Where no end group is shown, it is not given here.
# Key:
# human PBMC = experiment: IL-23 in supernatants of human PBMC, ELISA (Example 6, Table 25); type: cell-based; settings: test compound 3.5 ng/ml
# Protocol: (§1) Peripheral blood was drawn from healthy volunteers (with approval from the relevant ethical committee in Denmark). Heparinized blood was diluted 1/1 v/v with RPMI and were subjected to Ficoll density centrifugation within 2 h of drawing. Plasma was collected from the top from individual donors and was kept on ice until it was used at 2% in the culture medium (autologous culture medium). Isolated PBMC were resuspended in autologous culture medium and seeded in 96-well culture plates with 255.000 cells per well in a total of 200 μl. […] The concentrations used for stimulation were optimized on 3 different donors in initial experiments, for LPS two different concentrations were used to be sure to be on a cytokine level that is possible to modulate. In some experiments PBMC were treated with Dexamethason and Indomethacin alone and together with LPS or LTA as a control on downregulation of inflammatory cytokines. The supernatants were collected after incubation at 37° C. for 24 hours, and stored at −80° C. until cytokine measurement. Viability was measured by Alamar Blue (Biosource, DALL 1100) in all experiments and in some cases also by MTS (Promega) according to manufacturer's instruction and was in some experiments also judged by counting of the cells by a Nucleocounter.
# Example 6 was carried out essentially as described in Example 4 for human PBMCs; however, the readout was IL-23 instead of TNF, IL-1β and IL-10. Moreover, the effect of rhBD2 on human monocyte-derived dendritic cells was also investigated.
# Cell culture supernatants were collected and stored at −80° C. Amounts of IL-23 was measured by standard sandwich ELISA using commercially available antibodies and standards according to the manufacturer's protocols (eBioscience).
# All experiments were performed at least twice, with representative results shown. The data presented are expressed as mean plus/minus standard deviation […]. […] Differences were considered significant for p<0.05.
# [1] = system: human peripheral blood mononuclear cells (PBMC); experiment: TNF production from LPS-treated human PBMC, CBA (Example 5); type: cell-based; settings: Table 21
# Protocol: as §1
# (§2) Cytokine production in supernatants was measured by flow cytometry with a human inflammation cytometric bead array (CBA) according to manufacturer's instructions (BD) on a FACSarray flow cytometer. The following cytokines were measured: IL-8, IL-1β, IL-10, TNF, IL-12 p70, IL-6. In some experiments, cytokines were measured by ELISA kits from R&D systems (IL-10, TNF-α, IL-1β) according to the manufacturer′ instruction.
# (§3) Example 5 was carried out essentially as described in Example 4.
# (§4) In each table, all samples were tested on the same donor. SD means standard deviation.
# [2] = system: human peripheral blood mononuclear cells (PBMC); experiment: IL-10 production from LPS-treated human PBMC, CBA (Example 5); type: cell-based; settings: Table 22
# Protocol: as §1, §2, §4
# [3] = system: human peripheral blood mononuclear cells (PBMC); experiment: IL-1β production from LPS-treated human PBMC, CBA (Example 5, Table 23); type: cell-based
# Protocol: as §1, §2, §3, §4
# [4] = system: human peripheral blood mononuclear cells (PBMC); experiment: TNF production from LPS-treated human PBMC, CBA (Example 7, Table 26); type: cell-based
# Protocol: as §1, §2
# (§5) Example 7 was carried out essentially as described in Example 4 for human PBMCs. […] The amino acid sequence of mBD3 is shown in SEQ ID NO:6. Mouse PBMCs were prepared as described below.
# [5] = system: mouse peripheral blood mononuclear cells (PBMC); experiment: TNF production from LPS-treated mouse PBMC, CBA (Example 7); type: cell-based, mouse (NMRI)
# Protocol: as §5
# Mouse peripheral blood mononuclear cells were isolated from blood of ten NMRI mice. In short, heparinized blood was diluted 1/1 v/v with RPMI and subjected to Ficoll density centrifugation within 2 h of drawing. Plasma was collected from the top and discarded. Isolated PBMC were resuspended in culture medium (RPMI 1640 (Gibco, 42401) w/ 1% penicillin and streptomycin and 1% L-Glutamine) and seeded in 96-well culture plates with 115.500 cells per well in a total of 200 μl. […] The supernatants were collected after incubation at 37° C. for 24 hours, and stored at −80° C. until cytokine measurement.
# Cytokine production in supernatants was measured by flow cytometry with a mouse inflammation cytometric bead array (CBA) according to manufacturer's instructions (BD) on a FACSarray flow cytometer.
# [6] = LPS 0.6 ng/ml, test compound 1 μg/ml
# [7] = LPS 0.6 ng/ml, test compound 10 μg/ml
# [8] = LPS 0.6 ng/ml, test compound 40 μg/ml
# [9] = LPS 20 ng/ml, test compound 1 μg/ml
# [10] = LPS 20 ng/ml, test compound 10 μg/ml
# [11] = LPS 20 ng/ml, test compound 40 μg/ml
# [12] = Medium (no LPS), test compound 1 μg/ml
# [13] = Medium (no LPS), test compound 10 μg/ml
compound,measurement,setting,value
C[C@@H]1C[C@H]2[C@@H]3CCC4=CC(=O)C=C[C@]4(C)[C@@]3(F)[C@@H](O)C[C@]2(C)[C@@]1(O)C(=O)CO [Dexamethasone],IL-23 pg/ml,human PBMC; Control (medium),222 pg/mL
same,IL-23 pg/ml,human PBMC; LTA 5 μg/ml,223 pg/mL
"hBD1: human beta defensin 1 (SEQ ID NO:1), prepared using chemical synthesis (DHYNCVSSGGQCLYSACPIFTKIQGTCYRGKAKCCK; not fully specified; cysteine pairing not given here; listed as Homo sapiens)",TNF,"[1]; 1 μg/ml, LPS 0.6 ng/ml",474 pg/mL
same,TNF % of control,"[1]; 1 μg/ml, LPS 0.6 ng/ml",65%
same,TNF,"[1]; 1 μg/ml, LPS 20 ng/ml",1395 pg/mL
same,TNF % of control,"[1]; 1 μg/ml, LPS 20 ng/ml",64%
same,TNF,"[1]; 1 μg/ml, Medium",1 pg/mL
same,TNF,"[1]; 10 μg/ml, LPS 0.6 ng/ml",203 pg/mL
same,TNF % of control,"[1]; 10 μg/ml, LPS 0.6 ng/ml",28%
same,TNF,"[1]; 10 μg/ml, LPS 20 ng/ml",1311 pg/mL
same,TNF % of control,"[1]; 10 μg/ml, LPS 20 ng/ml",61%
same,TNF,"[1]; 10 μg/ml, Medium",0 pg/mL
same,TNF,"[1]; 40 μg/ml, LPS 0.6 ng/ml",91 pg/mL
same,TNF % of control,"[1]; 40 μg/ml, LPS 0.6 ng/ml",13%
same,TNF,"[1]; 40 μg/ml, LPS 20 ng/ml",999 pg/mL
same,TNF % of control,"[1]; 40 μg/ml, LPS 20 ng/ml",46%
same,TNF,"[1]; 40 μg/ml, Medium",0 pg/mL
same,IL-10,"[2]; 1 μg/ml, LPS 0.6 ng/ml",71 pg/mL
same,IL-10 % of control,"[2]; 1 μg/ml, LPS 0.6 ng/ml",108%
same,IL-10,"[2]; 1 μg/ml, LPS 20 ng/ml",95 pg/mL
same,IL-10 % of control,"[2]; 1 μg/ml, LPS 20 ng/ml",85%
same,IL-10,"[2]; 1 μg/ml, Medium",0 pg/mL
same,IL-10,"[2]; 10 μg/ml, LPS 0.6 ng/ml",76 pg/mL
same,IL-10 % of control,"[2]; 10 μg/ml, LPS 0.6 ng/ml",114%
same,IL-10,"[2]; 10 μg/ml, LPS 20 ng/ml",100 pg/mL
same,IL-10 % of control,"[2]; 10 μg/ml, LPS 20 ng/ml",90%
same,IL-10,"[2]; 10 μg/ml, Medium",0 pg/mL
same,IL-10,"[2]; 40 μg/ml, LPS 0.6 ng/ml",69 pg/mL
same,IL-10 % of control,"[2]; 40 μg/ml, LPS 0.6 ng/ml",104%
same,IL-10,"[2]; 40 μg/ml, LPS 20 ng/ml",113 pg/mL
same,IL-10 % of control,"[2]; 40 μg/ml, LPS 20 ng/ml",102%
same,IL-10,"[2]; 40 μg/ml, Medium",0 pg/mL
same,IL-1β,[3]; [6],512 pg/mL
same,IL-1β % of control,[3]; [6],69%
same,IL-1β,[3]; [7],401 pg/mL
same,IL-1β % of control,[3]; [7],54%
same,IL-1β,[3]; [8],302 pg/mL
same,IL-1β % of control,[3]; [8],41%
same,IL-1β,[3]; [9],2087 pg/mL
same,IL-1β % of control,[3]; [9],82%
same,IL-1β,[3]; [10],1913 pg/mL
same,IL-1β % of control,[3]; [10],75%
same,IL-1β,[3]; [11],1599 pg/mL
same,IL-1β % of control,[3]; [11],63%
same,IL-1β,[3]; [12],0 pg/mL
same,IL-1β,[3]; [13],0 pg/mL
same,IL-1β,"[3]; Medium (no LPS), test compound 40 μg/ml",0 pg/mL
"mBD3: mouse beta defensin 3 (SEQ ID NO:6), prepared with the same protocol as hBD2 (KINNPVSCLRKGGRCWNRCIGNTRQIGSCGVPFLKCCKRK; mat_peptide (1)..(40); listed as Mus musculus)",TNF,[4]; [9],384 pg/mL
same,TNF,[4]; [10],51 pg/mL
same,TNF,"[4]; LPS 20 ng/ml, test compound 100 μg/ml",166 pg/mL
same,TNF,[4]; [12],2 pg/mL
same,TNF,[4]; [13],2 pg/mL
same,TNF,"[4]; Medium (no LPS), test compound 100 μg/ml",39 pg/mL
same,secretion of TNF,[4]; human PBMCs (Table 26),downregulating the secretion of TNF from human PBMCs to the same extend as hBD2 and dexamethason
same,TNF,"[5]; 1 μg/ml, LPS 20 ng/ml",1600 pg/mL
same,TNF,"[5]; 1 μg/ml, Medium",347 pg/mL
same,TNF,"[5]; 10 μg/ml, LPS 20 ng/ml",297 pg/mL
same,TNF,"[5]; 10 μg/ml, Medium",180 pg/mL
same,TNF,"[5]; 100 μg/ml, LPS 20 ng/ml",195 pg/mL
same,TNF,"[5]; 100 μg/ml, Medium",182 pg/mL
